Where two headings read alike, the source gives them in different places.
Key:
carrageenin edema = assay: Inhibitory activity on carrageenin edema; format: in vivo, Wistar male rats; conditions: rat, paw swelling volume three hours after carrageenin; for Inhibition rate (%): dose 50 mg/kg orally
Procedure: Using Wistar male rats (body weight: about 100 g), each test group consisted of 5 rats. A test compound was mixed with Tween 80 [polyoxyethylenesorbitan monooleate (manufactured by Nacalai Tesque K.K.)], and distilled water was added thereto to obtain a 2% Tween 80 suspension, or it was dissolved in the form of a salt in water to obtain an aqueous solution. Either the suspension or the aqueous solution was orally administered in an amount of 200 mg/kg, 100 mg/kg, 50 mg/kg or 25 mg/kg. One hour later, 0.1 ml of a 1% λ-carrageenin solution dissolved in a physiological saline was injected subcutaneously to the right hind paw of each rat to cause inflamation. Three hours later, the paw volume was measured by a paw volume measuring device (manufactured by Ugobasiee K.K.). A swelling volume was obtained from the difference from the value before the inflammation. Inhibition rate (%) = (l -(F)/(E)) x 100 [formula] • F: Average swelling volume in the group to which a test compound was administered. • E: Average swelling volume in the control group.

[1] = tested on: experimental acute pancreatitis model; assay: Effects against acute pancreatitis (Test Example 8, closed duodenal loop method, lesion scores); format: in vivo, Crj-CD male rats; conditions: Rattus norvegicus, 10 mg/kg single intravenous injection, sodium salt, 6 hours after ventrotomy
Procedure: Using Crj-CD male rats, each test group consisted of 3 rats. An experimental acute pancreatitis model was prepared by a closed duodenal loop method under anethesia with halothane (manufactured by Hoechst Japan) and nitrous oxide (manufactured by Sumitomo Seika K.K.) applied by a general inhalation anesthesia machine (Model EM2 and halothane evaporator F-Model). Each compound (subjected to the test in the form of a sodium salt) was continuously intravenously injected into the tail vein in an amount of 0.4 ml/100 g to 0.6 ml/100 g at a rate of 0.05 ml per minute by a pump (Technicon AA II Proportioning Pump III, manufactured by Technicon Instruments Corporation) or rapidly intravenously injected. No injection was made to a control group. Gross pathological examination was conducted upon expiration of 6 hours after the ventrotomy in the case of the group to which the compound was administered. With respect to each of four lesions among pancreatic lesions i.e. petechia, ecchymosis, pancreatic necrosis and abdominal fatty necrosis, the grade and the distribution of lesions were scored with five grades of 0, 0.5, 1, 2 and 3 (severe lesions are 3). The sum of all lesions was designated as scores of pancreatitis lesions, and the sum of the score of petechia and the score of ecchymosis only was designated as scores of hemorrhagic lesions. The pancreatitis inhibition rate (%) and the hemorrhage inhibition rate (%) were obtained by the following formulas, and the results are shown in Table 13. Pancreatitis inhibition rate (%) = (l -(H)/(G)) x 100 [formula] • H: Scores of pancreatitis lesions of the group to which a test compound was administered. • G: Scores of pancreatitis lesions of the control group. Hemorrhage inhibition rate (%) = (l -(J)/(I)) x 100 [formula] • J: Scores of hemorrhagic lesions of the group to which a test compound was administered. • I: Scores of hemorrhagic lesions of the control group.

[2] = target: T1, Porcine pancreatic phospholipase A2 (Sus scrofa, UniProt P00592); assay: Phospholipase A2 inhibitory activity, method B (L-α-dipalmitoylphosphatidylcholine substrate); format: biochemical; conditions: 37°C for 30 minutes; for inhibition at 1000 ppm: 1,000 ppm, read-out: % inhibition of PLA2 (1,000 ppm)
T1 construct: purchased Boehringer Mannheim·Yamanouchi K.K. 161454·122416
T1 sequence (P00592 23-146): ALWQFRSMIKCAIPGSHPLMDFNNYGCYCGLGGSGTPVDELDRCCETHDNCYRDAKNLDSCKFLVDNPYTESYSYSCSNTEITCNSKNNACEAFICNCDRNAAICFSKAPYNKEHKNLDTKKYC
Procedure: To a solution prepared by dissolving 9.2 mg of L-α-dipalmitoylphosphatidylcholine (manufactured by Nichiyu Liposome K.K.) in 0.5 ml of chloroform, a solution prepared by dissolving 32 mg of sodium cholate (manufactured by Wako Pure Chemical Industries, Ltd.) in 0.5 ml of methanol, was added, followed by mixing. The solvent of the mixture was removed under a nitrogen stream, and then 2.5 ml of a 250 mM sodium chloride solution [prepared by dissolving sodium chloride in a 100 mM Tris-HCl buffer solution {tris(hydroxymethyl)aminomethane (manufactured by Nacalai Tesque K.K.) was adjusted to pH8.0 with hydrochloric acid}] was added thereto, and the mixture was dissolved under stirring to obtain a substrate.
Porcine pancreatic phospholipase A2 [(161454·122416) manufactured by Boehringer Mannheim·Yamanouchi K.K.] was used.
To a 96 well microtitration plate, 20 µl of a solution containing calcium chloride, bovine serum alubmin (manufactured by Sigma Chemical, Co.) and a Tris-HCl buffer solution (pH8.0) at concentrations of 25 mM, 4.5 mg/ml and 100 mM, respectively, 5 µl of a solution prepared by dissolving 10 mg of a test compound in 500 µl of diemthylsulfoxide, followed by an addition of 500 µl of a 200 mM Tris-HCl buffer solution, 5 µl of an enzyme solution (10 µg/ml) [prepared by dissolving the enzyme in a bovine serum alubmin solution (prepared by dissolving bovine serum alubmin in a 100 mM Tris-HCl buffer solution at a concentration of 1 mg/ml)] and 20 µl of the substrate, were added and reacted at 37°C for 30 minutes. After termination of the reaction, the released free fatty acid was quantitatively analyzed in accordance with the ACS-ACOD (acyl CoA synthetase-acyl CoA oxidase) method [a kit of NEFA C test wako (manufactured by Wako Pure Chemical Industries, Ltd.) was used]. The quantitative analysis was made by means of Microplate ELISA Reader (Model 2550EIA Reader, manufactured by Bio-Rad Laboratories) at a wavelength of 540 nm. Separately, such experiments as mentioned above, were carried out at various concentrations (1 µg/ml, 0.75 µg/ml, 0.5 µg/ml and 0.25 µg/ml) of phospholipase A2 without a test compound. Then, the concentration of the free fatty acid versus the concentration of phospholipase A2 was plotted.
From this standard curve, the apparent concentration of phospholipase A2 in the case with a test compound, was read. Then, the percent inhibition of the enzyme was calculated by the following formula. Percent inhibition (%) = (l -(A)/(B)) x 100 [formula] • A: Apparent enzyme concentration when a test compound is added. • B: True enzyme concentration when a test compound is added.

[3] = read-out: Inhibition rate of hemorrhagic lesions (%)
[4] = read-out: Inhibition rate of pancreatitis lesions (%)

| inhibition at 1000 ppm [2] | Compound | inhibition in vivo at 10 mg/kg [1, 3] | inhibition in vivo at 10 mg/kg [1, 4] | also measured |
| --- | --- | --- | --- | --- |
|  | CCOC(=O)NC(=S)Nc1cc(C(F)(F)F)cnc1NS(=O)(=O)c1ccc(C)cc1 [Compound No. 25] |  |  | inhibition in vivo at 200 mg/kg (carrageenin edema; po, 3 h, dose 200 mg/kg orally, read-out: Inhibition rate (%)): 27% |
|  | CS(=O)(=O)Nc1ncc(C(F)(F)F)cc1NC(=O)c1ccc2c(c1)OCC(F)(F)O2 [Compound No. 35] | 35% | 35% |  |
|  | CS(=O)(=O)Nc1ncc(C(F)(F)F)cc1NC(=O)c1ccc2c(c1)OCCO2 [compound 34] | 30% | 30% |  |
| 53% | CS(=O)(=O)Nc1ncc(C(F)(F)F)cc1NC(=O)CC1CCCC1 [compound 62] | 45% | 61% |  |
| 61% | CS(=O)(=O)Nc1ncc(C(F)(F)F)cc1NC(=O)CCc1ccccc1 [compound 64] | 60% | 68% |  |
| 82% | CS(=O)(=O)Nc1ncc(C(F)(F)F)cc1NC(=O)C1CCCCCC1 [compound 67] |  |  | inhibition in vivo at 25 mg/kg (carrageenin edema; po, 3 h, dose 25 mg/kg orally, read-out: Inhibition rate (%)): 19% |
| 63% | CS(=O)(=O)Nc1ncc(C(F)(F)F)cc1NC(=O)C1=CCCCC1 [compound 69] |  |  | Inhibition rate (%) (carrageenin edema): 25% |
| 40% | CC(C)=CC(=O)Nc1cc(C(F)(F)F)cnc1NS(C)(=O)=O [compound 70] |  |  |  |
| 77% | CS(=O)(=O)Nc1ncc(C(F)(F)F)cc1NC(=O)C=Cc1ccccc1 [compound 71] |  |  |  |
| 33% | C=CCCC(=O)Nc1cc(C(F)(F)F)cnc1NS(C)(=O)=O [compound 74] | 66% | 67% |  |
| 81% | CS(=O)(=O)Nc1ncc(C(F)(F)F)cc1NC(=O)C#Cc1ccccc1 [compound 75] |  |  |  |
| 61% | CS(=O)(=O)Nc1ncc(C(F)(F)F)cc1NC(=O)c1ccc(F)cc1F [compound 76] |  |  |  |
| 94% | CCc1ccc(C(=O)Nc2cc(C(F)(F)F)cnc2NS(C)(=O)=O)cc1 [compound 81] | 49% | 58% |  |
| 64% | Cc1ccc(C(=O)Nc2cc(C(F)(F)F)cnc2NS(C)(=O)=O)s1 [compound 83] | 53% | 51% |  |
| 56% | CS(=O)(=O)Nc1ncc(C(F)(F)F)cc1NC(=O)c1ccsc1 [compound 84] |  |  |  |
| 33% | CS(=O)(=O)Nc1ncc(C(F)(F)F)cc1NC(=O)c1ccco1 [compound 85] | 57% | 67% |  |
| 83% | CS(=O)(=O)Nc1ncc(C(F)(F)F)cc1NC(=O)c1cc2c(s1)CCC2 [compound 88] |  |  |  |
| 51% | CC(Cl)(Cl)C(=O)Nc1cc(C(F)(F)F)cnc1NS(C)(=O)=O [compound 89] |  |  |  |
| 79% | CS(=O)(=O)Nc1ncc(C(F)(F)F)cc1NC(=O)C(=O)c1ccccc1 [compound 90] |  |  |  |
| 75% | O=C(Nc1cc(C(F)(F)F)cnc1NS(=O)(=O)C(F)(F)F)c1cccs1 [compound 92] |  |  |  |

| inhibition at 1000 ppm [2] | Compound | inhibition in vivo at 10 mg/kg [1, 3] | inhibition in vivo at 10 mg/kg [1, 4] | also measured |
| --- | --- | --- | --- | --- |
| 85% | CCS(=O)(=O)Nc1ncc(C(F)(F)F)cc1NC(=O)C1CC=CCC1 (centres unmarked) [compound 95] |  |  |  |
| 88% | CCS(=O)(=O)Nc1ncc(C(F)(F)F)cc1NC(=O)C1CCCCCC1 [compound 97] | 35% | 35% |  |
| 86% | CCS(=O)(=O)Nc1ncc(C(F)(F)F)cc1NC(=O)c1cccc(C(F)(F)F)c1 [compound 99] |  |  |  |
| 83% | CCS(=O)(=O)Nc1ncc(C(F)(F)F)cc1NC(=O)c1ccc(C(F)(F)F)cc1 [compound 100] |  |  |  |
| 86% | CC(C)S(=O)(=O)Nc1ncc(C(F)(F)F)cc1NC(=O)C1CCCCC1 [compound 103] |  |  |  |
|  | CCCCS(=O)(=O)Nc1ncc(C(F)(F)F)cc1NC(=O)C1CC1 [compound 107] | 63% | 61% |  |
| 61% | CCCCS(=O)(=O)Nc1ncc(C(F)(F)F)cc1NC(=O)C(F)(F)Cl [compound 108] |  |  |  |
| 67% | COc1ccc(S(=O)(=O)Nc2ncc(C(F)(F)F)cc2NC(=O)c2cccs2)cc1 [compound 109] |  |  |  |
| 41% | CN(C)S(=O)(=O)Nc1ncc(C(F)(F)F)cc1NC(=O)C1CCCC1 [compound 111] |  |  |  |
| 79% | CN(C)S(=O)(=O)Nc1ncc(C(F)(F)F)cc1NC(=O)C(F)(F)C(F)(F)F [compound 112] |  |  |  |
| 52% | COS(=O)(=O)Nc1ncc(C(F)(F)F)cc1NC(=O)C1CCCCC1 [compound 115] |  |  |  |
| 69% | COS(=O)(=O)Nc1ncc(C(F)(F)F)cc1NC(=O)c1ccc2c(c1)CCC2 [compound 116] |  |  |  |
| 65% | CCOS(=O)(=O)Nc1ncc(C(F)(F)F)cc1NC(=O)C1CCCCC1 [compound 117] | 30% | 30% |  |
| 84% | CCOS(=O)(=O)Nc1ncc(C(F)(F)F)cc1NC(=O)c1ccc2c(c1)CCC2 [compound 118] |  |  |  |
| 56% | Cc1cc(C)cc(C(=O)Nc2cc(C(F)(F)F)cnc2NS(C)(=O)=O)c1 [compound 122] | 51% | 51% |  |
| 78% | CCCCCCC(=O)Nc1cc(C(F)(F)F)cnc1NS(C)(=O)=O [compound 124] | 51% | 51% |  |
| 84% | O=C(Nc1cc(C(F)(F)F)cnc1NS(=O)(=O)c1cccs1)C1CCCCC1 [compound 126] |  |  |  |
| 89% | O=C(Nc1cc(C(F)(F)F)cnc1NS(=O)(=O)c1cccs1)c1ccc2c(c1)CCC2 [compound 127] |  |  |  |
|  | O=C(Nc1ncc(C(F)(F)F)cc1NC(=O)C1CCCCC1)c1ccccc1 [compound 150] |  |  | Inhibition rate (%) (carrageenin edema): 23% |
|  | CS(=O)(=O)Nc1ncc(C(F)(F)F)cc1NC(=O)C(F)(F)C(F)(F)F [compound 260] |  |  | % inhibition of PLA2 (1,000 ppm) [2]: 53% |
